# ChEMBL document CHEMBL3885881, “DrugMatrix”
# Organism: Rattus norvegicus
# Assay: DrugMatrix - Regimen: Daily Repeat
# Format: toxicity, organism-based, Sprague-Dawley
# Design: regimen Daily Repeat, gender Male, age 6-8 weeks
# Conditions: in vivo, po, route oral GAVAGE, […]; for URIC ACID / ALANINE AMINOTRANSFERASE / ALBUMIN / ALKALINE PHOSPHATASE / ASPARTATE AMINOTRANSFERASE / BLOOD UREA NITROGEN / CARBON DIOXIDE / CHLORIDE / CHOLESTEROL / CREATINE PHOSPHOKINASE / CREATININE / GLUCOSE / LACTATE DEHYDROGENASE / LIPASE / PHOSPHORUS / POTASSIUM / SODIUM / TOTAL BILIRUBIN / TOTAL PROTEIN: tissue Plasma; for ABSOLUTE BASOPHIL / ABSOLUTE EOSINOPHIL / ABSOLUTE LYMPHOCYTE / ABSOLUTE MONOCYTE / ABSOLUTE SEGMENTED NEUTROPHIL / BASOPHIL / EOSINOPHIL / ERYTHROCYTE COUNT / HEMATOCRIT / HEMOGLOBIN / LEUKOCYTE COUNT / LYMPHOCYTE / MEAN CORPUSCULAR HEMOGLOBIN / MEAN CORPUSCULAR HEMOGLOBIN CONCENTRATION / MONOCYTE / NEUTROPHIL / NUCLEATED RED BLOOD CELLS / PLATELET COUNT: tissue Blood
# [1] = 0.2 mg/kg, 120 h, dose level Low, time 5 day
# [2] = 19 mg/kg, 72 h, dose level High, time 3 day
# [3] = 19 mg/kg, 120 h, dose level High, time 5 day
structure (smiles),measurement,setting,value
CCOC(=O)C1=C(COCCN)NC(C)=C(C(=O)OC)C1c1ccccc1Cl (stereo unspecified) [AMLODIPINE],URIC ACID,"0.2 mg/kg, 72 h, dose level Low, time 3 day",1.4 mg/dL
same,ABSOLUTE BASOPHIL,[1],0 CELLS/uL
same,ABSOLUTE EOSINOPHIL,[1],54 CELLS/uL
same,ABSOLUTE LYMPHOCYTE,[1],12693.33 CELLS/uL
same,ABSOLUTE MONOCYTE,[1],54 CELLS/uL
same,ABSOLUTE SEGMENTED NEUTROPHIL,[1],1132 CELLS/uL
same,BASOPHIL,[1],0%
same,EOSINOPHIL,[1],0.33%
same,ERYTHROCYTE COUNT,[1],5.55 x10E6/uL
same,HEMATOCRIT,[1],34.53%
same,HEMOGLOBIN,[1],13.3 G/DL
same,LEUKOCYTE COUNT,[1],13.93 x10E3/uL
same,LYMPHOCYTE,[1],91.33%
same,MEAN CORPUSCULAR HEMOGLOBIN,[1],23.97 pg
same,MEAN CORPUSCULAR HEMOGLOBIN CONCENTRATION,[1],38.5 G/DL
same,MONOCYTE,[1],0.33%
same,NEUTROPHIL,[1],8%
same,NUCLEATED RED BLOOD CELLS,[1],0.33 /100WBC
same,PLATELET COUNT,[1],1051.33 x10E3/uL
same,ALANINE AMINOTRANSFERASE,[1],66 u/L
same,ALBUMIN,[1],4.1 G/DL
same,ALKALINE PHOSPHATASE,[1],350 u/L
same,ASPARTATE AMINOTRANSFERASE,[1],82 u/L
same,BLOOD UREA NITROGEN,[1],16 mg/dL
same,CARBON DIOXIDE,[1],30.33 mmol/L
same,CHLORIDE,[1],99.33 MEQ/L
same,CHOLESTEROL,[1],64.33 mg/dL
same,CREATINE PHOSPHOKINASE,[1],209.67 u/L
same,CREATININE,[1],0.14 mg/dL
same,GLUCOSE,[1],156.33 mg/dL
same,LACTATE DEHYDROGENASE,[1],144.67 u/L
same,LIPASE,[1],19.33 u/L
same,PHOSPHORUS,[1],10.4 mg/dL
same,POTASSIUM,[1],5.81 MEQ/L
same,SODIUM,[1],144.97 MEQ/L
same,TOTAL BILIRUBIN,[1],0.1 mg/dL
same,TOTAL PROTEIN,[1],5.67 G/DL
same,URIC ACID,[1],0.87 mg/dL
same,ABSOLUTE BASOPHIL,[2],0 CELLS/uL
same,ABSOLUTE EOSINOPHIL,[2],0 CELLS/uL
same,ABSOLUTE LYMPHOCYTE,[2],15467 CELLS/uL
same,ABSOLUTE MONOCYTE,[2],0 CELLS/uL
same,ABSOLUTE SEGMENTED NEUTROPHIL,[2],1533 CELLS/uL
same,BASOPHIL,[2],0%
same,EOSINOPHIL,[2],0%
same,ERYTHROCYTE COUNT,[2],5.69 x10E6/uL
same,HEMATOCRIT,[2],35.43%
same,HEMOGLOBIN,[2],13.97 G/DL
same,LEUKOCYTE COUNT,[2],17 x10E3/uL
same,LYMPHOCYTE,[2],90.67%
same,MEAN CORPUSCULAR HEMOGLOBIN,[2],24.53 pg
same,MEAN CORPUSCULAR HEMOGLOBIN CONCENTRATION,[2],39.4 G/DL
same,MONOCYTE,[2],0%
same,NEUTROPHIL,[2],9.33%
same,NUCLEATED RED BLOOD CELLS,[2],0 /100WBC
same,PLATELET COUNT,[2],1141 x10E3/uL
same,ALANINE AMINOTRANSFERASE,[2],69.67 u/L
same,ALBUMIN,[2],3.77 G/DL
same,ALKALINE PHOSPHATASE,[2],410 u/L
same,ASPARTATE AMINOTRANSFERASE,[2],81.67 u/L
same,BLOOD UREA NITROGEN,[2],14 mg/dL
same,CARBON DIOXIDE,[2],29.67 mmol/L
same,CHLORIDE,[2],101.67 MEQ/L
same,CHOLESTEROL,[2],68 mg/dL
same,CREATINE PHOSPHOKINASE,[2],240.33 u/L
same,CREATININE,[2],0.16 mg/dL
same,GLUCOSE,[2],161 mg/dL
same,LACTATE DEHYDROGENASE,[2],103.33 u/L
same,LIPASE,[2],10 u/L
same,PHOSPHORUS,[2],10.33 mg/dL
same,SODIUM,[2],141.27 MEQ/L
same,TOTAL BILIRUBIN,[2],0.23 mg/dL
same,TOTAL PROTEIN,[2],5.6 G/DL
same,URIC ACID,[2],1.43 mg/dL
same,ABSOLUTE BASOPHIL,[3],0 CELLS/uL
same,ABSOLUTE EOSINOPHIL,[3],0 CELLS/uL
same,ABSOLUTE LYMPHOCYTE,[3],11777 CELLS/uL
same,ABSOLUTE MONOCYTE,[3],51 CELLS/uL
same,ABSOLUTE SEGMENTED NEUTROPHIL,[3],838.67 CELLS/uL
same,BASOPHIL,[3],0%
same,EOSINOPHIL,[3],0%
same,ERYTHROCYTE COUNT,[3],5.63 x10E6/uL
same,HEMATOCRIT,[3],34.73%
same,HEMOGLOBIN,[3],13.7 G/DL
same,LEUKOCYTE COUNT,[3],12.67 x10E3/uL
same,LYMPHOCYTE,[3],92.67%
same,MEAN CORPUSCULAR HEMOGLOBIN,[3],24.33 pg
same,MEAN CORPUSCULAR HEMOGLOBIN CONCENTRATION,[3],39.47 G/DL
same,MONOCYTE,[3],0.33%
same,NEUTROPHIL,[3],7%
same,NUCLEATED RED BLOOD CELLS,[3],0 /100WBC
same,PLATELET COUNT,[3],1057.67 x10E3/uL
same,ALANINE AMINOTRANSFERASE,[3],95 u/L
same,ALBUMIN,[3],4 G/DL
same,ALKALINE PHOSPHATASE,[3],359.33 u/L
same,ASPARTATE AMINOTRANSFERASE,[3],100 u/L
same,BLOOD UREA NITROGEN,[3],16 mg/dL
same,CARBON DIOXIDE,[3],34.67 mmol/L
same,CHLORIDE,[3],101.5 MEQ/L
same,CHOLESTEROL,[3],68.33 mg/dL
same,CREATINE PHOSPHOKINASE,[3],177.67 u/L
same,CREATININE,[3],0.13 mg/dL
same,GLUCOSE,[3],165 mg/dL
same,LACTATE DEHYDROGENASE,[3],96.67 u/L
same,LIPASE,[3],12 u/L
same,PHOSPHORUS,[3],8.93 mg/dL
same,POTASSIUM,[3],5.34 MEQ/L
same,SODIUM,[3],145.05 MEQ/L
same,TOTAL BILIRUBIN,[3],0.1 mg/dL
same,TOTAL PROTEIN,[3],5.9 G/DL
same,URIC ACID,[3],0.37 mg/dL
